According to patent publication US9908848B2, “Amide derivatives of lactam based N-acylethanolamine acid amidase (NAAA) inhibitors” (The Regents of the University of California, priority 2013, dated 2018):
One block for each molecule: values may come before it.

How the values were obtained:
human NAAA = biological target: T1, human NAAA (Homo sapiens, UniProt Q02083); experiment: Fluorogenic h-NAAA assay; assay type: biochemical; details: for IC50: recombinant HEK-hNAAA preparation; for inhibition at 2.5 µM / inhibition at 50 µM: read-out: h-NAAA Fluorogenic assay % inhib.; for h-NAAA Fluorogenic assay (n.a.): @100 μM
T1 construct: made in house; host or cells: HEK293 cells, stably transfected; soluble fraction after freeze/thaw
T1 sequence (Q02083 29-359): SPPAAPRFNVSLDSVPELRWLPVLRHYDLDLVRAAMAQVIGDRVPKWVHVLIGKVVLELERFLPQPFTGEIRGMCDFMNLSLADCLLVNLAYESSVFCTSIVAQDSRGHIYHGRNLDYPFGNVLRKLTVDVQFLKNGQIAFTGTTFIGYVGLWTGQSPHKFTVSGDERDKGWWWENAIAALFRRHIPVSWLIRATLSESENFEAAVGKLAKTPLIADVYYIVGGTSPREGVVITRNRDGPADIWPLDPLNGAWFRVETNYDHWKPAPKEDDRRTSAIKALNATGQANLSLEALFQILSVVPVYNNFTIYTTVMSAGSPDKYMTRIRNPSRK
Description: Hek293 cells stably transfected with the human NAAA coding sequence cloned from a human spleen cDNA library were used as enzyme source. Recombinant HEK-hNAAA pellets were resuspended in homogenizing buffer, and sonicated. Samples were centrifuged at 800×g for 15 min at 4° C. and the supernatants were ultracentrifuged at 12,000×g for 30 min at 4° C. The pellets were resuspended in PBS pH 7.4 on ice and subjected to a freeze/thaw cycle at −80° C. (two freeze/thaw cycles at −80° C. for Examples 34-37). The suspension was finally centrifuged at 105,000×g for 1 h at 4° C. Protein concentration was measured and samples stored at −80° C. until use.
The assay was run in Optiplate 96-wells black plates, in a total reaction volume of 200 μL. NAAA protein preparation (4.0 μg for Examples except 34-37, which were 20.0 μg) was pre-incubated for 10 min with various concentrations of test compounds or vehicle control (5% DMSO) in 100 mM citrate/phosphate buffer (pH 4.5) containing 3.0 mM DTT, 0.1% Triton X-100, 0.05% BSA, 150 mM NaCl. N-(4-methyl-2-oxo-chromen-7-yl)-hexadecanamide was used as a substrate (5.0 μM) and the reaction carried over for 30 min at 37° C. The samples were then read in a Perkin Elmer Envision plate reader using an excitation wavelength of 360 nm and emission 460 nm. IC50 values were calculated by non-linear regression analysis of log [concentration]/inhibition curves using GraphPad Prism 5 (GraphPad Software Inc., CA—USA) applying a standard slope curve fitting.

r-NAAA = biological target: T2, r-NAAA (Rattus norvegicus, UniProt Q5KTC7); experiment: UPLC/MS r-NAAA assay; assay type: biochemical; details: for inhibition at 3 µM / inhibition at 30 µM: read-out: r-NAAA UPLC/MS assay % inhib.; for r-NAAA UPLC/MS assay (n.a.): @100 μM; for IC50: rat lung lysosomal NAAA preparation
T2 construct: Lysosomal NAAA protein preparation was obtained by homogenizing male Sprague-Dawley rat lungs; tissue Charles River; host or cells: male Sprague-Dawley rat lung, soluble lysosomal fraction
T2 sequence (Q5KTC7 34-362): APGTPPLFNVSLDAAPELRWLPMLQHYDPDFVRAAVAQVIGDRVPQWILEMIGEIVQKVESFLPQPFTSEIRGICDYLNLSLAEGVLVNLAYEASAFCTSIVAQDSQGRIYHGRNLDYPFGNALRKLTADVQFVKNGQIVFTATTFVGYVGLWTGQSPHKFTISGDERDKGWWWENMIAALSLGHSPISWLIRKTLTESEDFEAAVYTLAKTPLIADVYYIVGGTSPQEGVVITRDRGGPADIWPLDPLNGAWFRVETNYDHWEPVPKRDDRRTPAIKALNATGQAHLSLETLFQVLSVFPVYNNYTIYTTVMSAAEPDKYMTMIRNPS
Description: Lysosomal NAAA protein preparation was obtained by homogenizing male Sprague-Dawley rat lungs (Charles River) in 20 mM Tris-HCl buffer pH 7.4 containing 0.32M sucrose. Samples were centrifuged at 800×g for 15 min at 4° C. Supernatants were centrifuged at 12,000×g for 30 min at 4° C. Pellets were then resuspended in PBS pH 7.4 and subjected to a freeze/thaw cycle at −80° C. The suspension was finally centrifuged at 105,000 g for 1 h at 4° C. The supernatant was used in enzymatic assays.
NAAA preparations were pre-incubated with various concentrations of test compounds or vehicle control in 100 mM NaH2PO4/Citrate buffer, 1% Triton-X, 3 mM DTT (pH 4.5) for 30 min at 37° C. Samples were incubated with heptadecenoylethanolamide (50 μM, Avanti Polar Lipids) at 37° C. for 30 min. The reaction was terminated by addition of cold methanol containing heptadecanoic acid (NuCheck Prep) as internal standard. Samples were analyzed by UPLC/MS (Acquity, Waters). Heptadecenoic and heptadecanoic acids were eluted on an Acquity UPLC BEH C18 column (50 mm length, 2.1 mm i.d., 1.7 μm pore size, Waters) isocratically at 0.5 mL/min for 1.5 min with a solvent mixture of 95% methanol and 5% H2O, both containing 0.25% Acetic Acid and 5.0 mM ammonium acetate. The column temperature was 40° C. Electrospray ionization was in the negative mode, capillary voltage was 0.5 kV, cone voltage was […], desolvation temperature was 500° C. N2 was used as drying gas at a flow rate of 1000 L/hour and a temperature of 500° C. The [M−H]^− ion was monitored in the selected-ion monitoring mode (m/z values: heptadecenoic acid 267.37, heptadecanoic acid 269.37). Calibration curves were generated using commercial heptadecenoic acid (NuCheck Prep) Inhibition of NAAA activity was calculated as reduction of heptadecenoic acid in the samples compared to vehicle controls. IC50 values were calculated by non-linear regression analysis of log [concentration]/inhibition curves using GraphPad Prism 5 (GraphPad Software Inc., CA—USA) applying a standard slope curve fitting.

[1] = test system: carrageenan-induced paw edema and heat hyperalgesia; experiment: Carrageenan-induced inflammation (paw edema, heat hyperalgesia); assay type: in vivo; details: mice, oral administration (p.o.), 3-30 mg/kg, dose- and time-dependent

Compound: O=C(CCCCCCc1ccccc1)N[C@@H]1CNC1=O [Example 8, 7-Phenyl-N-[(3R)-2-Oxoazetidin-3-yl]-heptanamide]
- inhibition at 3 µM (r-NAAA): 30%

Compound: CC1(C(=O)N[C@H]2CNC2=O)CCCCC1 [Example 13, 1-Methyl-N-[(3S)-2-oxoazetidin-3-yl]-cyclohexane-carboxamide]
- r-NAAA UPLC/MS assay (n.a.) (r-NAAA): n.a. (n.a. = <10% inhib.@100 μM)

Compound: O=C(N[C@@H]1CNC1=O)c1ccc(-c2ccccc2)cc1 [Example 2, 4-Phenyl-N-[(3R)-2-oxoazetidin-3-yl]-benzamide]
- inhibition at 3 µM (r-NAAA): 10%

Compound: CCCCCCCCC(=O)N[C@@H]1CNC1=O [Example 4, N-[(3R)-2-Oxoazetidin-3-yl]-nonanamide]
- IC50 (human NAAA): 40000 nM

Compound: O=C(C/C=C/c1ccccc1)N[C@H]1CNC1=O [Example 15, (E)-N-[(3S)-2-Oxoazetidin-3-yl]-4-phenyl-but-3-enamide]
- inhibition at 30 µM (r-NAAA): 20%

Compound: O=C(N[C@H]1CNC1=O)c1ccc(-c2ccccc2)cc1 [Example 1, 4-Phenyl-N-[(3S)-2-oxoazetidin-3-yl]-benzamide]
- inhibition at 3 µM (r-NAAA): 15%

Compound: O=C(CCCCC1CCCCC1)N[C@H]1CNC1=O [Example 16, 5-Cyclohexyl-N-[(3S)-2-oxoazetidin-3-yl]-pentanamide]
- IC50 (r-NAAA): 1000 nM

Compound: CCCCC/C=C\CC(=O)N[C@H]1CNC1=O [Example 6, (Z)—N-[(3S)-2-Oxoazetidin-3-yl]-non-3-enamide]
- IC50 (r-NAAA): 680 nM
- IC50 (human NAAA): 1940 nM

Compound: O=C(CCCOCc1ccccc1)N[C@@H]1CNC1=O [Example 10, 4-Benzyloxy-N-[(3R)-2-oxoazetidin-3-yl]-butanamide]
- inhibition at 30 µM (r-NAAA): 10%

Compound: CC1(C(=O)N[C@@H]2CNC2=O)CCCCC1 [Example 14, 1-Methyl-N-[(3R)-2-oxoazetidin-3-yl]-cyclohexane-carboxamide]
- r-NAAA UPLC/MS assay (n.a.) (r-NAAA): n.a. (n.a. = <10% inhib.@100 μM)

Compound: O=C(N[C@H]1CNC1=O)c1ccc(OCc2ccccc2)cc1 [Example 11, 4-Benzyloxy-N-[(3S)-2-oxoazetidin-3-yl]-benzamide]
- inhibition at 30 µM (r-NAAA): 10%

Compound: O=C(CCCCCC1CCCCC1)N[C@H]1CNC1=O [Example 17, 6-Cyclohexyl-N-[(3S)-2-oxoazetidin-3-yl]-hexanamide]
- IC50 (r-NAAA): 130 nM
- IC50 (human NAAA): 275 nM

Compound: O=C(CCc1ccc(-c2ccccc2)cc1)N[C@H]1CNC1=O [Example 18, 3-(4-Phenylphenyl)-N-[(3S)-2-oxoazetidin-3-yl]-propanamide]
- h-NAAA Fluorogenic assay (n.a.) (human NAAA): n.a. (n.a. = <10% inhib.@100 μM)

Compound: O=C(CCCOCc1ccccc1)N[C@H]1CNC1=O [Example 9, 4-Benzyloxy-N-[(3S)-2-oxoazetidin-3-yl]-butanamide]
- r-NAAA UPLC/MS assay (n.a.) (r-NAAA): n.a. (n.a. = <10% inhib.@100 μM)

Compound: CCCCC/C=C/CC(=O)N[C@H]1CNC1=O [Example 5, (E)-N-[(3S)-2-Oxoazetidin-3-yl]-non-3-enamide]
- IC50 (r-NAAA): 2300 nM
- IC50 (human NAAA): 1340 nM
- heat hyperalgesia [1]: markedly attenuated
- paw edema [1]: markedly attenuated

Compound: O=C(N[C@@H]1CNC1=O)c1ccc(OCc2ccccc2)cc1 [Example 12, 4-Benzyloxy-N-[(3R)-2-oxoazetidin-3-yl]-benzamide]
- inhibition at 3 µM (r-NAAA): 10%

Further lines, results first:

- IC50 (human NAAA): 15600 nM
Compound: CCCc1ccc(CC(=O)N[C@H]2CNC2=O)cc1 [Example 35, N-[(3S)-2-oxoazetidin-3-yl]-2-(4-propylphenyl)acetamide]

- inhibition at 2.5 µM (human NAAA): 16%
Compound: CCCCc1ccc(C(=O)N[C@H]2CNC2=O)cc1 [Example 33, 4-Butyl-N-[(3S)-2-oxoazetidin-3-yl]-benzamide]

- IC50 (human NAAA): 930 nM
Compound: CCCCCCCC(=O)N[C@H]1CNC1=O [Example 22, N-[(3S)-2-Oxoazetidin-3-yl]-octanamide]

- IC50 (human NAAA): 4020 nM
Compound: CCCC[C@H]1CC[C@H](C(=O)N[C@H]2CNC2=O)CC1 [Example 34, (1r,4R)-4-butyl-N—((S)-2-oxoazetidin-3-yl)cyclohexanecarboxamide]

- IC50 (human NAAA): 43 nM
Compound: CCCCCCCCCCC(=O)N[C@H]1CNC1=O [Example 24, N-[(3S)-2-Oxoazetidin-3-yl]-undecanamide]

- IC50 (human NAAA): 220 nM
Compound: CCCCCCCC(C)C(=O)N[C@H]1CNC1=O (mixture of isomers) [Example 36, (2R)-2-methyl-N-[(3S)-2-oxoazetidin-3-yl]nonanamide and (2S)-2-methyl-N-[(3S)-2-oxoazetidin-3-yl]nonanamide]

- inhibition at 50 µM (human NAAA): 15%
Compound: O=C(CCc1ccccc1)N[C@H]1CNC1=O [Example 19, 3-Phenyl-N-[(3S)-2-oxoazetidin-3-yl]-propanamide]

- IC50 (human NAAA): 33900 nM
Compound: O=C(CCCCc1ccccc1)N[C@H]1CNC1=O [Example 25, 5-Phenyl-N-[(3S)-2-oxoazetidin-3-yl]-pentanamide]

- IC50 (human NAAA): 7830 nM
Compound: CCCCCCC(=O)N[C@H]1CNC1=O [Example 21, N-[(3S)-2-Oxoazetidin-3-yl]-heptanamide]

- IC50 (human NAAA): 13400 nM
Compound: O=C(CCCCCc1ccccc1)N[C@H]1CNC1=O [Example 31, 6-Phenyl-N-[(3S)-2-oxoazetidin-3-yl]-hexanamide]

- h-NAAA Fluorogenic assay (n.a.) (human NAAA): n.a. (n.a. = <10% inhib.@100 μM)
Compound: O=C(CCc1ccccc1)N[C@@H]1CNC1=O [Example 20, 3-Phenyl-N-[(3R)-2-oxoazetidin-3-yl]-propanamide]

- IC50 (human NAAA): 380 nM
Compound: CCCCCCCCC(=O)N[C@@H]1C(=O)N[C@H]1C [Example 28, N-[(2S,3S)-2-methyl-4-oxo-azetidin-3-yl]-nonanamide]

- IC50 (human NAAA): 758 nM
Compound: CCCCCCCC(C)(C)C(=O)N[C@H]1CNC1=O [Example 37, 2,2-dimethyl-N-[(3S)-2-oxoazetidin-3-yl]nonanamide]

- inhibition at 50 µM (human NAAA): 60%
Compound: C[C@@H]1NC(=O)[C@H]1NC(=O)CCc1ccc(-c2ccccc2)cc1 [Example 29, N-[(2S,3S)-2-methyl-4-oxo-azetidin-3-yl]-3-(4-phenylphenyl)-propanamide]

- IC50 (human NAAA): 110000 nM
Compound: O=C(CCCc1ccccc1)N[C@H]1CNC1=O [Example 32, 4-Phenyl-N-[(3S)-2-oxoazetidin-3-yl]-butanamide]

- h-NAAA Fluorogenic assay (n.a.) (human NAAA): n.a. (n.a. = <10% inhib.@100 μM)
Compound: O=C(CCCCc1ccccc1)N[C@@H]1CNC1=O [Example 26, 5-Phenyl-N-[(3R)-2-oxoazetidin-3-yl]-pentanamide]

- inhibition at 3 µM (r-NAAA): 40%
- inhibition at 2.5 µM (human NAAA): 20%
Compound: CCCCCCCCC(=O)N(C)[C@H]1CNC1=O [Example 27, N-Methyl-N-[(3S)-2-Oxoazetidin-3-yl]-nonanamide]
